Measured values: paper PMC3025922 (BMC Biology, 2010)
Where two headings read alike, the source gives them in different places.

System: nuclear p27 in LNCaP-S14 cells
Format: cell-based, human
[1] = primary screening, nuclear p27 in LNCaP-S14 cells
[2] = primary screening, S = strong, M = medium, W = weak by Z score

| SMILES | Z score (aver) [1] | Clasf [2] | other results |
| --- | --- | --- | --- |
| O=c1cc(-c2ccc(O)c(O)c2)oc2cc(O)cc(O)c12 [1570N21] | 3.48 | M (medium (Z score 3-5)) |  |
| O=C1C=C2C=CC3CC2(O1)C1CCCCN31 (stereo not drawn) [1570J03] | 3.84 | M (medium (Z score 3-5)) |  |
| Clc1ccccc1C(c1ccccc1)(c1ccccc1)n1ccnc1 [1568F16] |  |  | Clasf: W (key: S: strong (Z score > 5); M: medium (Z score 3-5); W: weak (Z score 2-3); Z score (aver): 2.26 |
| CCC(=C(c1ccccc1)c1ccc(OCCN(C)C)cc1)c1ccccc1.O=C(O)CC(O)(CC(=O)O)C(=O)O [1568M14] | 2.56 | W (weak (Z score 2-3) |  |
| CNc1ccc2oc(CC3OC4(CCC3C)OC(C(C)C(=O)c3ccc[nH]3)C(C)CC4C)nc2c1C(=O)O (stereo not drawn) [1361O18] | 8.06 | S (strong (Z score > 5)) |  |
| CN(C)c1ccc(O)c2c1CC1CC3C(N(C)C)C(O)=C(C(N)=O)C(=O)C3(O)C(O)=C1C2=O.Cl (stereo not drawn) [501G12] | 5.15 | S (strong (Z score > 5)) |  |
| Cl.N=C(N)NC(=O)c1nc(Cl)c(N)nc1N [500J04] | 2.43 | W (weak (Z score 2-3) |  |
| CSc1ccc2c(c1)C(N1CCN(C)CC1)Cc1ccccc1S2.O=C(O)C=CC(=O)O (stereo not drawn) [1569K11] | 4.55 | M (medium (Z score 3-5)) |  |
| CCOC(=O)C1=C(C)N=c2sc(=Cc3ccc(N(CC)CC)o3)c(=O)n2C1c1ccccc1OC (stereo not drawn) [1158M07] | 11.51 | S (strong (Z score > 5)) |  |
| CO[C@@]12[C@H](COC(N)=O)C3=C(C(=O)C(C)=C(N)C3=O)N1C[C@@H]1N[C@@H]12 [mitomycin C, reference compound] |  |  | hit in primary screen (increased percentage of p27 positive cells): identified |
| Fc1ccc(-c2cc(NC3CC3)nc(-c3ccncc3)n2)cc1 [1306K08] | 3.56 | M (medium (Z score 3-5)) |  |
| COc1ccc(OCC(=N)NC(=S)Nc2ccc(Cl)cc2)cc1 [1520B19] | 2.51 | W (weak (Z score 2-3) |  |
| Clc1ccc(COC(Cn2ccnc2)c2ccc(Cl)cc2Cl)c(Cl)c1 (stereo not drawn) [1568M15] |  |  | Clasf: W (key: S: strong (Z score > 5); M: medium (Z score 3-5); W: weak (Z score 2-3); Z score (aver): 2.54 |
| CC=C(C(=CC)c1ccc(O)cc1)c1ccc(O)cc1 [502G13] | 2.95 | W (weak (Z score 2-3) |  |
| COc1ccc(-c2nc3c4ccccc4c4ccccc4c3[nH]2)c(OC)c1 [1160C13] | 2.90 | W (weak (Z score 2-3) |  |
| CN(C)c1ccc(C=CC=CC23NC(=O)CN2c2ccccc2C3(C)C)cc1 (stereo not drawn) [1160J08] | 4.94 | M (medium (Z score 3-5)) |  |
| COC(=O)Nc1nc2cc(Sc3ccccc3)ccc2[nH]1 [1568J21] | 3.73 | M (medium (Z score 3-5)) |  |
| CC#CC1(O)CCC2C3CCC4=CC(=O)CCC4=C3C(c3ccc(N(C)C)cc3)CC21C (stereo not drawn) [1568L20] | 3.22 | M (medium (Z score 3-5)) |  |
| N#Cc1cc2c(nc1SCC(=O)Nc1ccccc1F)CCCCC2 [1158J04] | 2.92 | W (weak (Z score 2-3) |  |
| Cc1ccc(C)n1-c1ccccc1CNS(=O)(=O)c1ccc(Cl)cc1 [669P04] | 5.53 | S (strong (Z score > 5)) |  |

| SMILES | Z score (aver) [1] | Clasf [2] | other results |
| --- | --- | --- | --- |
| CC(C)(C)c1ccc(S(=O)(=O)Nc2ccc3[nH]c(C(C)(C)C)cc3c2)cc1 [521I15] | 7.27 | S (strong (Z score > 5)) |  |
| COc1cc([C@@H]2c3cc4c(cc3[C@@H](O[C@@H]3O[C@@H]5CO[C@@H](C)O[C@H]5[C@H](O)[C@H]3O)[C@H]3COC(=O)[C@H]23)OCO4)cc(OC)c1O [etoposide, reference compound] |  |  | hit in primary screen (increased percentage of p27 positive cells) (LNCaP-S14, ~5 to 35 μM, 18 h): identified |
| CC1=CC(=O)c2ccccc2C1=O [1569K20] | 6.94 | S (strong (Z score > 5)) |  |
| C=C(NC(=O)C(=C)NC(=O)c1csc(C2=NC3c4csc(n4)C4NC(=O)c5csc(n5)C(C(C)(O)C(C)O)NC(=O)C5CSC(=N5)C(=CC)NC(=O)C(C(C)O)NC(=O)c5csc(n5)C3(CC2)NC(=O)C(C)NC(=O)C(=C)NC(=O)C(C)NC(=O)C(C(C)CC)NC2C=Cc3c(C(C)O)cc(nc3C2O)C(=O)OC4C)n1)C(N)=O (stereo not drawn) [1569J05] | 5.60 | S (strong (Z score > 5)) |  |
| COc1ccc(SC(=O)c2cc(C)n(Cc3c(Cl)cccc3Cl)n2)cc1 [1520J06] | 3.39 | M (medium (Z score 3-5)) |  |
| CCC1C=CC=CCC(C)C(O)C(C)(O)C(=O)C(C)C(O)C(C)C(=O)C(C)C(O)C(C)C=CC(=O)OC2C(C)C(CC1)OC1(CCC(C)C(CC(C)O)O1)C2C (stereo not drawn) [500B11] | 3.61 | M (medium (Z score 3-5)) |  |
| CCC(=O)N(Cc1cccc(Cl)c1)c1ccc2[nH]c(C(C)(C)C)cc2c1 [522J18] | 6.59 | S (strong (Z score > 5)) |  |
| O=[N+]([O-])C(=C(Cl)Sc1ccccc1)C(Cl)=C(Cl)Cl [1159C10] | 2.72 | W (weak (Z score 2-3) |  |
| CC1=NC(=Cc2sccc2C)C(=O)O1 [1520B10] | 2.27 | W (weak (Z score 2-3) |  |
| CCCCCCCCCCCCCCCC[N+](C)(C)CCN(Cc1ccc(OC)cc1)c1ncccn1 [1570J12] | 8.18 | S (strong (Z score > 5)) |  |
| COc1cc(OC)c(CN2CCC(NC(=O)c3ccc(-n4nc(C(C)(C)C)cc4C(C)(C)C)cc3)C2)c(OC)c1 (stereo not drawn) [567D12] | 8.89 | S (strong (Z score > 5)) |  |
| COCC1OC(=O)c2coc3c2C1(C)C1=C(C3=O)C2CCC(=O)C2(C)CC1OC(C)=O (stereo not drawn) [1362N13] | 6.65 | S (strong (Z score > 5)) |  |
| CCC(C(=O)C(C)C(O)C(C)CCc1ccc(C)c(O)c1C(=O)[O-])C1OC(CC)(C2CCC(O)(CC)C(C)O2)CC1C.[Na+] (stereo not drawn) [1570F17] | 8.04 | S (strong (Z score > 5)) |  |
| CCCCc1ccc(NC(C)=O)c(C)c1 [541G02] |  |  | Clasf: S (key: S: strong (Z score > 5); M: medium (Z score 3-5); W: weak (Z score 2-3); Z score (aver): 7.67 |
| Cc1nc(NCCc2c[nH]c3ccccc23)cc(-c2ccc(F)cc2)n1 [1306E02] | 3.02 | M (medium (Z score 3-5)) |  |
| CN1CCCN(C(c2ccccc2)c2ccc(Cl)cc2)CC1.Cl (stereo not drawn) [1568J08] | 2.49 | W (weak (Z score 2-3) |  |
| O=C(Nc1ccccc1)Nc1ccc(SCc2nc(OCC(F)(F)F)cc(OCC(F)(F)F)n2)cc1 [521I09] | 3.70 | M (medium (Z score 3-5)) |  |
| CCCCCc1cc(O)c2c(c1)OC(C)(C)c1ccc(C)cc1-2 [503C05] | 5.93 | S (strong (Z score > 5)) |  |
| CC(=O)N1CCC(N(C(=O)C2CC2)c2ccc3c(c2)CCN3C(C)=O)CC1 [520E02] | 2.46 | W (weak (Z score 2-3) |  |
| CCCCCCC[N+](CC)(CC)CCCCc1ccc(Cl)cc1.Cc1ccc(S(=O)(=O)[O-])cc1 [1568P20] | 9.16 | S (strong (Z score > 5)) |  |

| SMILES | Z score (aver) [1] | Clasf [2] | other results |
| --- | --- | --- | --- |
| CCCN1CCC(N(C(=O)c2ccc(NC(=O)C(c3ccccc3)c3ccccc3)cc2)C2CC2)CC1 [521L12] | 4.02 | M (medium (Z score 3-5)) |  |
| CCC1(O)C(=O)OCc2c1cc1n(c2=O)Cc2cc3c(O)cccc3nc2-1 (stereo not drawn) [1361B06] | 7.99 | S (strong (Z score > 5)) |  |
| Cc1ccc(-c2cc(C(F)(F)F)nn2-c2ccc(S(N)(=O)=O)cc2)cc1 [502M15] | 2.59 | W (weak (Z score 2-3) |  |
| Oc1ccc(Cl)cc1Cc1cc(Cl)ccc1O [501G22] | 4.38 | M (medium (Z score 3-5)) |  |
| CC(C)COCC(CN(Cc1ccccc1)c1ccccc1)N1CCCC1.Cl (stereo not drawn) [500F12] | 5.49 | S (strong (Z score > 5)) |  |
| O=C1C2C3c4ccccc4C(CO)(c4ccccc43)C2C(=O)N1c1ccc(Br)cc1 (stereo not drawn) [1160E22] | 2.44 | W (weak (Z score 2-3) |  |
| CC(C)(C)c1cc2cc(NS(=O)(=O)c3ccc(Cl)cc3)ccc2[nH]1 [521I19] | 9.14 | S (strong (Z score > 5)) |  |
| CCN(CC)CCOC(=O)C(c1ccccc1)C1CCCCC1.Cl (stereo not drawn) [500G17] | 2.62 | W (weak (Z score 2-3) |  |
| O=C(CSC1=NNC(c2ccccn2)S1)c1cccc(F)c1 (stereo not drawn) [1520D17] | 4.91 | M (medium (Z score 3-5)) |  |
| O=C(C(c1ccccc1)c1ccccc1)N(Cc1ccc(Cl)cc1)Cc1ccc2cc[nH]c2c1 [522N04] | 2.29 | W (weak (Z score 2-3) |  |
| O=C(OCn1ncc(Cl)c(Cl)c1=O)c1cccc(C(F)(F)F)c1 [567M11] | 4.23 | M (medium (Z score 3-5)) |  |
| COc1ccccc1CN(C(=O)Nc1ccc(F)cc1F)c1ccc2[nH]c(C(C)(C)C)cc2c1 [522J16] | 4.05 | M (medium (Z score 3-5)) |  |
| Cc1ccc(C(=O)C2C(c3ccccc3I)C(C#N)(C#N)C3c4ccccc4C=CN23)cc1 (stereo not drawn) [669K08] | 2.72 | W (weak (Z score 2-3) |  |
| CS(=O)(=O)c1ccc(F)c(N2C(=O)C=CC2=O)c1 [518H15] | 7.59 | S (strong (Z score > 5)) |  |
| C=C1c2c(Cl)ccc(O)c2C(=O)C2=C(O)C3(O)C(=O)C(C(N)=O)=C(O)C(N(C)C)C3C(O)C12.O=C(O)c1cc(S(=O)(=O)O)ccc1O (stereo not drawn) [1569K14] | 2.51 | W (weak (Z score 2-3) |  |
| CCN(CC)c1ccc(NCN2C(=O)c3ccccc3C2=O)c(C)c1 [541E03] | 2.75 | W (weak (Z score 2-3) |  |
| Cc1cc(C(=O)Sc2cccc(Br)c2)nn1C(C)(C)C [1520N02] | 5.16 | S (strong (Z score > 5)) |  |
| Fc1ccc(-c2cc(NCc3ccc(Cl)cc3)nc(-c3ccncc3)n2)cc1 [1306I08] | 3.44 | M (medium (Z score 3-5)) |  |
